Source: article PMC9525273 (Nature Communications, 2022)
Where “and” joins values, the source holds several entries; their conditions need not be identical. Identical values can stand only once. Like-named read-outs stand apart in the source and are kept apart here.

Columns and labels:
Experiment in all cases: P. falciparum proliferation assay (72 h, fluorescent DNA-intercalating dye)
Type in all cases: cell-based, Plasmodium falciparum
[1] = tested on: Dd2-PfATP4^T418N,P990R parasites
Description: (§1) For experiments with all other parasites, the effects of compounds of interest on parasite proliferation was measured in 96-well plates containing serial dilutions of the compounds in culture medium, with a fluorescent DNA-intercalating dye used to detect surviving parasites. The assays were initiated with erythrocytes infected with predominantly ring-stage parasites, and the starting parasitaemia and haematocrit were both 1%.

Dd2 parasites = tested on: Dd2 parasites
Description: as §1

[2] = tested on: HCR2 parasites (highly cipargamin-resistant clone 2); settings: Plasmodium falciparum
Description: as §1

[3] = tested on: HCR1 parasites (highly cipargamin-resistant clone 1); settings: Plasmodium falciparum
Description: as §1

Dd2-Polδ parasites = tested on: Dd2-Polδ parasites
Description: as §1

[4] = tested on: Dd2-Polδ-PfATP4^G358S parasites
Description: as §1

`N#Cc1cc(NC(=O)[C@H]2c3ccccc3C(=O)N(CC(F)(F)F)[C@@H]2c2cccnc2)ccc1F` [(+)-SJ733] was tested, and the IC50 ([1]; Dd2-PfATP4T418N,P990R, single experiments, source data of Fig. 2 (nM in Supplementary Table 1), read-out: IC50 values) was 359 nM and 293 nM and 333 nM and 337 nM, the IC50 ([1]; Plasmodium falciparum, DD2, Dd2-PfATP4T418N,P990R, MEAN, source data of Fig. 2, read-out: IC50 values, MEAN) was 331 nM and the IC50 ([1]; Plasmodium falciparum, DD2, Dd2-PfATP4T418N,P990R, single experiments, source data of Fig. 2 (nM in Supplementary Table 1), read-out: IC50 values) was 334 nM. It also gave an IC50 ([1]; Plasmodium falciparum, DD2, read-out: Mean IC50 value ± SEM for growth inhibition, Dd2-PfATP4T418N,P990R, Supplementary Table 1, Set 1) of 331 ± 11 nM, an IC50 (Dd2 parasites; Plasmodium falciparum, DD2, read-out: IC50 values, Dd2, single experiments, source data of Fig. 2 (nM in Supplementary Table 1)) of 58.3 nM and an IC50 (Dd2 parasites; Plasmodium falciparum, DD2, read-out: IC50 values, MEAN, Dd2, MEAN, source data of Fig. 2) of 59.6 nM. For the same compound, the IC50 (Dd2 parasites; Plasmodium falciparum, DD2, read-out: Mean IC50 value ± SEM for growth inhibition, Dd2, Supplementary Table 1, Set 1) was 60 ± 2 nM, the IC50 (Dd2 parasites; read-out: IC50 values, Dd2, single experiments, source data of Fig. 2 (nM in Supplementary Table 1)) was 66.6 nM and 57.7 nM and 59 nM and 56.4 nM and the IC50 ([2]; HCR2, MEAN, source data of Fig. 2, read-out: IC50 values, MEAN) was 17600 nM. The IC50 ([2]; read-out: Mean IC50 value ± SEM for growth inhibition, HCR2, Supplementary Table 1, Set 1) was 17600 nM, the IC50 ([3]; HCR1, MEAN, source data of Fig. 2, read-out: IC50 values, MEAN) was 21500 nM and the IC50 ([3]; read-out: Mean IC50 value ± SEM for growth inhibition, HCR1, Supplementary Table 1, Set 1) was 21500 nM. The IC50 (Dd2-Polδ parasites; Dd2-Polδ, single experiments, source data of Fig. 2 (nM in Supplementary Table 1), read-out: IC50 values) was 30.9 nM and 37.1 nM and 51.3 nM, the IC50 (Dd2-Polδ parasites; Plasmodium falciparum, DD2, Dd2-Polδ, MEAN, source data of Fig. 2, read-out: IC50 values, MEAN) was 40.7 nM and the IC50 (Dd2-Polδ parasites; Plasmodium falciparum, DD2, Dd2-Polδ, single experiments, source data of Fig. 2 (nM in Supplementary Table 1), read-out: IC50 values) was 43.6 nM. For the same compound, the IC50 ([4]; Dd2-Polδ-PfATP4G358S, single experiments, source data of Fig. 2 (nM in Supplementary Table 1), read-out: IC50 values) was 11800 nM and 8860 nM and 8730 nM, the IC50 ([4]; Plasmodium falciparum, DD2, Dd2-Polδ-PfATP4G358S, MEAN, source data of Fig. 2, read-out: IC50 values, MEAN) was 9070 nM and the IC50 ([4]; Plasmodium falciparum, DD2, Dd2-Polδ-PfATP4G358S, single experiments, source data of Fig. 2 (nM in Supplementary Table 1), read-out: IC50 values) was 6890 nM. It also gave an IC50 ([4]; Plasmodium falciparum, DD2, SET-2, read-out: Mean IC50 value ± SEM for growth inhibition, Dd2-Polδ-PfATP4G358S, Supplementary Table 1, Set 2) of 9070 nM.
